Results from US6358921B1, “Antimicrobial peptide compositions and method” (priority 1996, dated 2002).

Tests used:
[1] = system: E. coli UB1005; type: cell-based, Escherichia coli; settings: UB1005
Description: (§1) The following bacterial strains were utilized: Escherichia coli UB1005 (wt) and its antibiotic supersusceptible derivative DC2 (Clark, 1984); Excherichia coli SC9251 and its polymixin B rasistant mutant pmrA SC9252 (Peterson, et al., 1987) Pseudomonas aeruginosa H187 (wt) (Angus, et al., 1987) and its antibiotic-sensitive derivative H188 (Zimmerman, W, Antimicrob. Agents Chemother. 18: 94-100, 1980); methicillin sensitive Staphylococcus aureus K147 (Kreiswirth, et al., 1983); Staphylococcus aureus SAP0017, a methicillin resistant clinical isolate from Dr. A. Chow (University of British Columia); Bacillus subtilis, an environmental wt lab strain. Enterococcus faecalis are ATCC 29212 cells and Staphylococcus epidermidis was a clinical isolate from Dr. D. Speert (University of British Columbia). Antifungal activity was tested using a clinical lab isolate of Candida albicans. Salmonella typhinurium C57 and C610 (Fields, P.I., et al., Science 243: 1059-1062 (1989) Corynebacterium xerosis was an environmental isolate (University of British Columbia).
(§2) It is now apparent that agar-based assays severely underestimate antifungal activity as well as activity against gram negative microorganisms (Kondejewski, et al., 1996). Consequently, in the studies reported herein, a liquid-broth method was used to measure the antibiotic properties of the peptides. […] Briefly, cells were grown overnight at 37° C. in LB and diluted in the same medium. Serial dilutions of antibiotics were added to the microtitre plates in a volume of 100 μL followed by 10 μL of bacteria to give a final inoculum of 5×10^5 CFU/mL. Plates were incubated at 37° C. overnight and MICs determined as the lowest antibiotic concentration that inhibited growth. […]

[2] = system: B. subtilis; type: cell-based, Bacillus subtilis
Description: as §1, §2

[3] = system: P. aeruginosa H187; type: cell-based, Pseudomonas aeruginosa; settings: H187
Description: as §1
(§3) It is now apparent that agar-based assays severely underestimate antifungal activity as well as activity against gram negative microorganisms (Kondejewski, et al., 1996). Consequently, in the studies reported herein, a liquid-broth method was used to measure the antibiotic properties of the peptides. […] Briefly, cells were grown overnight at 37° C. in LB and diluted in the same medium. Serial dilutions of antibiotics were added to the microtitre plates in a volume of 100 μL followed by 10 μL of bacteria to give a final inoculum of 5×10^5 CFU/mL. Plates were incubated at 37° C. overnight and MICs determined as the lowest antibiotic concentration that inhibited growth.
(§4) The results from antimicrobial and hemolytic assays are combined to provide a “Therapeutic Index” (TI) for each peptide with respect to individual microorganisms. As reported herein, the TI is calculated as the hemolytic activity divided by the antimicrobial activity. The TI thus is a measure of specificity of the particular peptide for microbial membranes as opposed to human blood cell membranes. In the present studies, antimicrobial activities are reported as minimum inhibitory concentrations (MIC)—the lowest concentration of peptide (μg/ml) found to inhibit growth of the particular microbe. Hemolytic activity is reported as the concentration of peptide that effected complete lysis of blood cells after four hours. Thus, in the context of the present invention high TI values indicate microbial specificity and relative lack of toxicity.

[4] = system: S. epidermidis; type: cell-based, Staphylococcus epidermidis
Description: as §1, §2

[5] = system: E. faecalis; type: cell-based, Enterococcus faecalis
Description: as §1, §2

[6] = system: P. aeruginosa H188; type: cell-based, Pseudomonas aeruginosa; settings: H188
Description: as §1, §2

[7] = system: S. typhinurium C587; type: cell-based, Salmonella typhinurium
Description: as §1, §2

[8] = system: S. typhinurium C610; type: cell-based, Salmonella typhinurium
Description: as §1, §2

[9] = Displacement of dansyl-polymyxin from LPS; type: binding, P. aeruginosa; settings: read-out: LPS binding affinity: peptide concentration to displace 50% of dansyl-polymyxin B from LPS; Tables 1, 4, 7
Description: In order to determine whether ring size affects the interaction between the peptide and bacterial membranes, we studied the interaction between the GS ring analogs and bacterial lipopolysaccharide (LPS). It has been shown previously that dansyl-polymixin (DPX) is a good probe for cationic binding sites on both purified LPS as well as whole bacterial cells (Example 8; Moore, et al., 1986; Sawyer, et al., 1988; Hancock, 1981). […] The LPS binding activity of various GS analogs was investigated, as discussed above.
Dansyl-polymixin (DPX) displacement from P. aeruginosa LPS was measured as described (Moore, et al., 1986). Briefly, peptides were titrated into cuvettes containing 3 μg of LPS per mL and 2.5 μM dansyl-polymixin (approximately 90% saturation of LPS binding sites) in 1 mL of 5 mM sodium HEPES buffer, pH 7.0, and the decrease in fluorescence recorded. A plot of the inverse of the percent inhibition as a function of the inverse of inhibitor concentration gave a value for I50, the inhibitor concentration resulting in 50% displacement of dansyl-polymixin from LPS (−1/× intercept).

[10] = system: E. coli DC2; type: cell-based, Escherichia coli; settings: DC2
Description: as §1, §3, §4

[11] = system: S. aureus SAP0017; type: cell-based, Staphylococcus aureus
Description: as §1, §3, §4

[12] = system: S. aureus K147; type: cell-based, Staphylococcus aureus
Description: as §1, §3, §4

[13] = system: C. xeroses; type: cell-based, Corynebacterium xerosis
Description: as §1, §2

[14] = system: C. Albicans; type: cell-based, Candida albicans
Description: as §1, §2

CC(C)C[C@@H]1NC(=O)[C@H](CCCCN)NC(=O)[C@H](C(C)C)NC(=O)[C@@H]2CCCN2C(=O)[C@@H](Cc2ccc(O)cc2)NC(=O)[C@H](CC(C)C)NC(=O)[C@H](CCCCN)NC(=O)[C@H](C(C)C)NC(=O)[C@H](CCCCN)NC(=O)[C@H](CC(C)C)NC(=O)[C@@H]2CCCN2C(=O)[C@H](Cc2ccc(O)cc2)NC(=O)[C@H](C(C)C)NC(=O)[C@H](CCCCN)NC1=O [GS14Y6]
Minimum Inhibitory Concentration (activity) [1]: 50 µg/mL | Minimum Inhibitory Concentration (activity) [2]: >200 µg/mL | Minimum Inhibitory Concentration (activity) [3]: 200 µg/mL | Minimum Inhibitory Concentration (activity) [4]: 6.2 µg/mL | Minimum Inhibitory Concentration (activity) [5]: 3.1 µg/mL | Minimum Inhibitory Concentration (activity) [6]: 50 µg/mL | Minimum Inhibitory Concentration (activity) [7]: >200 µg/mL | Minimum Inhibitory Concentration (activity) [8]: 100 µg/mL | IC50 [9]: 20 µM | Minimum Inhibitory Concentration (activity) [10]: 3.1 µg/mL | Minimum Inhibitory Concentration (activity) [11]: >200 µg/mL | Minimum Inhibitory Concentration (activity) [12]: >200 µg/mL | Minimum Inhibitory Concentration (activity) [13]: 1 µg/mL

CC(C)C[C@@H]1NC(=O)[C@@H](CCCCN)NC(=O)[C@H](C(C)C)NC(=O)[C@@H](CCCCN)NC(=O)[C@H](CC(C)C)NC(=O)[C@@H]2CCCN2C(=O)[C@@H](Cc2ccc(O)cc2)NC(=O)[C@H](C(C)C)NC(=O)[C@@H](CCCCN)NC(=O)[C@H](CC(C)C)NC(=O)[C@@H](CCCCN)NC(=O)[C@H](C(C)C)NC(=O)[C@@H]2CCCN2C(=O)[C@@H](Cc2ccc(O)cc2)NC1=O [GS14K2K4K9K11]
Minimum Inhibitory Concentration (activity) [1]: 100 µg/mL | Minimum Inhibitory Concentration (activity) [2]: >200 µg/mL | Minimum Inhibitory Concentration (activity) [14]: >200 µg/mL | Minimum Inhibitory Concentration (activity) [3]: >200 µg/mL | Minimum Inhibitory Concentration (activity) [4]: >200 µg/mL | Minimum Inhibitory Concentration (activity) [5]: >200 µg/mL | Minimum Inhibitory Concentration (activity) [7]: >200 µg/mL | Minimum Inhibitory Concentration (activity) [8]: 25 µg/mL | IC50 [9]: 200 µM | Minimum Inhibitory Concentration (activity) [10]: 50 µg/mL | Minimum Inhibitory Concentration (activity) [11]: >200 µg/mL | Minimum Inhibitory Concentration (activity) [12]: >200 µg/mL | Minimum Inhibitory Concentration (activity) [13]: 25 µg/mL

CC(C)C[C@@H]1NC(=O)[C@H](CCCCN)NC(=O)[C@H](C(C)C)NC(=O)[C@@H]2CCCN2C(=O)[C@@H](Cc2ccc(O)cc2)NC(=O)[C@@H](CC(C)C)NC(=O)[C@H](CCCCN)NC(=O)[C@H](C(C)C)NC(=O)[C@H](CCCCN)NC(=O)[C@H](CC(C)C)NC(=O)[C@@H]2CCCN2C(=O)[C@@H](Cc2ccc(O)cc2)NC(=O)[C@H](C(C)C)NC(=O)[C@H](CCCCN)NC1=O [GS14L12]
Minimum Inhibitory Concentration (activity) [1]: 17 µg/mL | Minimum Inhibitory Concentration (activity) [2]: 200 µg/mL | Minimum Inhibitory Concentration (activity) [14]: 9 µg/mL | Minimum Inhibitory Concentration (activity) [3]: 200 µg/mL | Minimum Inhibitory Concentration (activity) [4]: 3.1 µg/mL | Minimum Inhibitory Concentration (activity) [5]: 0.8 µg/mL | Minimum Inhibitory Concentration (activity) [7]: 150 µg/mL | Minimum Inhibitory Concentration (activity) [8]: 50 µg/mL | IC50 [9]: 32 µM | Minimum Inhibitory Concentration (activity) [10]: 3.1 µg/mL | Minimum Inhibitory Concentration (activity) [11]: 50 µg/mL | Minimum Inhibitory Concentration (activity) [12]: 100 µg/mL | Minimum Inhibitory Concentration (activity) [13]: 3.1 µg/mL

CC(C)C[C@@H]1NC(=O)[C@H](CCCCN)NC(=O)[C@H](C(C)C)NC(=O)[C@H](CCCCN)NC(=O)[C@H](CC(C)C)NC(=O)[C@@H]2CCCN2C(=O)[C@@H](Cc2ccc(O)cc2)NC(=O)[C@H](C(C)C)NC(=O)[C@H](CCCCN)NC(=O)[C@H](CC(C)C)NC(=O)[C@@H](CCCCN)NC(=O)[C@H](C(C)C)NC(=O)[C@@H]2CCCN2C(=O)[C@@H](Cc2ccc(O)cc2)NC1=O [GS14K2]
Minimum Inhibitory Concentration (activity) [2]: 50 µg/mL | Minimum Inhibitory Concentration (activity) [14]: 6.2 µg/mL | Minimum Inhibitory Concentration (activity) [3]: 75 µg/mL | Minimum Inhibitory Concentration (activity) [4]: 6.2 µg/mL | Minimum Inhibitory Concentration (activity) [5]: 1.5 µg/mL | Minimum Inhibitory Concentration (activity) [6]: 62 µg/mL | Minimum Inhibitory Concentration (activity) [7]: 25 µg/mL | Minimum Inhibitory Concentration (activity) [8]: 3 µg/mL | IC50 [9]: 50 µM | Minimum Inhibitory Concentration (activity) [10]: 3.1 µg/mL | Minimum Inhibitory Concentration (activity) [11]: 50 µg/mL | Minimum Inhibitory Concentration (activity) [12]: 100 µg/mL | Minimum Inhibitory Concentration (activity) [13]: 0.8 µg/mL

CC(C)C[C@@H]1NC(=O)[C@H](CCCCN)NC(=O)[C@H](C(C)C)NC(=O)[C@H](CCCCN)NC(=O)[C@H](CC(C)C)NC(=O)[C@@H]2CCCN2C(=O)[C@@H](Cc2ccc(O)cc2)NC(=O)[C@H](C(C)C)NC(=O)[C@@H](CCCCN)NC(=O)[C@H](CC(C)C)NC(=O)[C@@H](CCCCN)NC(=O)[C@H](C(C)C)NC(=O)[C@@H]2CCCN2C(=O)[C@@H](Cc2ccc(O)cc2)NC1=O [GS14K2K4]
Minimum Inhibitory Concentration (activity) [1]: 50 µg/mL | Minimum Inhibitory Concentration (activity) [2]: >200 µg/mL | Minimum Inhibitory Concentration (activity) [14]: 200 µg/mL | Minimum Inhibitory Concentration (activity) [3]: 150 µg/mL | Minimum Inhibitory Concentration (activity) [4]: 100 µg/mL | Minimum Inhibitory Concentration (activity) [5]: >200 µg/mL | Minimum Inhibitory Concentration (activity) [7]: 200 µg/mL | Minimum Inhibitory Concentration (activity) [8]: 25 µg/mL | IC50 [9]: 120 µM | Minimum Inhibitory Concentration (activity) [10]: 6.2 µg/mL | Minimum Inhibitory Concentration (activity) [11]: >200 µg/mL | Minimum Inhibitory Concentration (activity) [12]: >200 µg/mL | Minimum Inhibitory Concentration (activity) [13]: 9 µg/mL
